For assay [1], the target named is IKKε (Homo sapiens (Human), UniProt Q14164). In words: IKKε TR-FRET enzymatic assay. Particulars: read-out: IKKe IC50. Format: biochemical. On the technique in general: Time-resolved FRET reads energy transfer from a long-lived donor to a nearby acceptor.
Assay [2] deals with hJAK2 (Homo sapiens (Human), UniProt O60674). In words: hJAK2 LANCE TR-FRET enzymatic assay. The class given is biochemical. Particulars: read-out: JAK2 IC50.
In assay [3] the target is TBK1 (Homo sapiens (Human), UniProt Q9UHD2). In words: TBK1 TR-FRET enzymatic assay.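 Note: phosphorylation of a biotinylated Ser/Thr peptide by purified full-length recombinant TBK1, read by TR-FRET after 240 min at 25 °C, IC50 is the geometric mean of at least four runs.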
Chain of TBK1 (Q9UHD2 whole entry): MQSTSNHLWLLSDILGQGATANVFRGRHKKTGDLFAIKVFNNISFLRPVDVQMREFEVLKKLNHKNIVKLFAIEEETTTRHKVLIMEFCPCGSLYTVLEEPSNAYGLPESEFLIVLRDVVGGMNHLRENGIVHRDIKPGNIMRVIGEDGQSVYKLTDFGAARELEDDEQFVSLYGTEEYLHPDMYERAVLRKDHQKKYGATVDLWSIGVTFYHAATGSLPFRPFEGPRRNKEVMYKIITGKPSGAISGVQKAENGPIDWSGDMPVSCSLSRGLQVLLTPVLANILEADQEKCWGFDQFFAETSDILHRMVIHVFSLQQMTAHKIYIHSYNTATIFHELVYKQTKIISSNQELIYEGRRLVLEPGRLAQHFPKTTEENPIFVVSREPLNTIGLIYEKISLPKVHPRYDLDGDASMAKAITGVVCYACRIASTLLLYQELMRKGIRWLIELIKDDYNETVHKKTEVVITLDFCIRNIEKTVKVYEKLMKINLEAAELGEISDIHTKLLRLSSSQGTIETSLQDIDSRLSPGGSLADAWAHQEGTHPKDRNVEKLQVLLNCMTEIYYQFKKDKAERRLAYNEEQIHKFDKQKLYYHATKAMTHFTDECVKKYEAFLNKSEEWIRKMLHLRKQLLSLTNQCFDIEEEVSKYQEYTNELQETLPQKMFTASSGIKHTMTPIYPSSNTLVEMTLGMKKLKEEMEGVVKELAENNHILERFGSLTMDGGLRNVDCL

A value given as a limit tells only on which side of the number the result lay.

Chain of hJAK2 (O60674 whole entry): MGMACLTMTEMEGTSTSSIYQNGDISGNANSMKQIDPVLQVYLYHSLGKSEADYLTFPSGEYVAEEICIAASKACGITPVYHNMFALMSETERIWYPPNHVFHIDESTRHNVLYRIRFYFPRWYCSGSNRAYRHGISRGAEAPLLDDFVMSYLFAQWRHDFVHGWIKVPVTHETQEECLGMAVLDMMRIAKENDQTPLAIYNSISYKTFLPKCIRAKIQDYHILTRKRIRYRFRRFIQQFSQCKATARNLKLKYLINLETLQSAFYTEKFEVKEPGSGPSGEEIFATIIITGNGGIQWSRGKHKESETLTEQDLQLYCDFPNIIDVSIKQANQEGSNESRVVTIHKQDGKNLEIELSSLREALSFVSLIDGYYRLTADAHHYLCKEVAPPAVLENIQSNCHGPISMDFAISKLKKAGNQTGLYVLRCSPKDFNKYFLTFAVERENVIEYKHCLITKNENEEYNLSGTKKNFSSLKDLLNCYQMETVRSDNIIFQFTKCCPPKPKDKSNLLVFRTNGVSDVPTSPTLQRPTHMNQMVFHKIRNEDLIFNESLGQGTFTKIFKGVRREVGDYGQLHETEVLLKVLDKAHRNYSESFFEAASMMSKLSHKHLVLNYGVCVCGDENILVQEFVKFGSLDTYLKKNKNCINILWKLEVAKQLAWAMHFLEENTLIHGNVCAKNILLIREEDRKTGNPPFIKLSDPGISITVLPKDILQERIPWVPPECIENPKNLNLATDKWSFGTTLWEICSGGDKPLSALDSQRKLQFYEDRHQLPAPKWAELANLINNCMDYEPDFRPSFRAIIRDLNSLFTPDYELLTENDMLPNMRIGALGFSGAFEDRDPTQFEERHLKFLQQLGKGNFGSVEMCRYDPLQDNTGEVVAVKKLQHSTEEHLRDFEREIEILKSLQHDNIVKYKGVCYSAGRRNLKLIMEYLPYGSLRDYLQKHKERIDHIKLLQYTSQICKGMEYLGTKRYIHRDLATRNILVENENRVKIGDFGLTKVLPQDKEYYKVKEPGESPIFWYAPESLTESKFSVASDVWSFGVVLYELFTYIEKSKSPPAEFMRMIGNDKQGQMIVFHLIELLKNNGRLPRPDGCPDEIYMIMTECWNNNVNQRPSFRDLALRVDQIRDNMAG
Chain of IKKε (Q14164 whole entry): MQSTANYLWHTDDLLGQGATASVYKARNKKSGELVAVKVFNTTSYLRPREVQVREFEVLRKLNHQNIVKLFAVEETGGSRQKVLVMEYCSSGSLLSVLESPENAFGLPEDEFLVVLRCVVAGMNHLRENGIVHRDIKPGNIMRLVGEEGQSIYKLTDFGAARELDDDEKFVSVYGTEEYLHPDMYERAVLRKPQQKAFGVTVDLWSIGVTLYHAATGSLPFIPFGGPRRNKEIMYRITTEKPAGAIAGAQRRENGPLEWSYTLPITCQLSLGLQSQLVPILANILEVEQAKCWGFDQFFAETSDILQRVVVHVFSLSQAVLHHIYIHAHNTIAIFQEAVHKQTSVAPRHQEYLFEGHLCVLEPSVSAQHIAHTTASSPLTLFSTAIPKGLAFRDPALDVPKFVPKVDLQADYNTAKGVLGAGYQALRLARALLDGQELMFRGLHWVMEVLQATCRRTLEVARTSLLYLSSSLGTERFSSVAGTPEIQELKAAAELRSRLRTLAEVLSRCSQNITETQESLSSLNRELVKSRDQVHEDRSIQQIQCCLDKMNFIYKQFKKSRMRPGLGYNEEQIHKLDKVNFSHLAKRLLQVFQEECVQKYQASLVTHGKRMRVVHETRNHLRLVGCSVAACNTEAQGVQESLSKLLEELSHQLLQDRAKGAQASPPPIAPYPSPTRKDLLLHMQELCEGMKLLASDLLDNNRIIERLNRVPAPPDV

Take `N#Cc1cc(-c2ncnc(Nc3ccc(N4CCN(C5COC5)CC4)cc3)n2)ccc1O[C@H]1CCN(C(=O)c2ccncn2)C[C@H]1F` [Example 337, 2-(((3R,4S)-3-fluoro-1-(pyrimidine-4-carbonyl)piperidin-4-yl)oxy)-5-(4-((4-(4-(oxetan-3-yl)piperazin-1-yl)phenyl)amino)-1,3,5-triazin-2-yl)benzonitrile]: the IC50 (usually the midpoint of a concentration-inhibition curve) worked out at 7 nM in assay [1], 572 nM in assay [2] and 4 nM in assay [3].
The matching figures for `N#Cc1cc(-c2ncnc(Nc3ccc(N4CCN(C5COC5)CC4)cc3)n2)ccc1O[C@H]1CCN(C(=O)c2ccnnc2)C[C@H]1F` [Example 338, 2-(((3R,4S)-3-fluoro-1-(pyridazine-4-carbonyl)piperidin-4-yl)oxy)-5-(4-((4-(4-(oxetan-3-yl)piperazin-1-yl)phenyl)amino)-1,3,5-triazin-2-yl)benzonitrile]: 18 nM, 131 nM and 9 nM.
On the same counts, the results for `N#Cc1cc(-c2ncnc(Nc3ccc(N4CCN(C5COC5)CC4)cc3)n2)ccc1O[C@H]1CCN(C(=O)c2nccnc2N)C[C@H]1F` [Example 339, 2-(((3R,4S)-1-(3-aminopyrazine-2-carbonyl)-3-fluoropiperidin-4-yl)oxy)-5-(4-((4-(4-(oxetan-3-yl)piperazin-1-yl)phenyl)amino)-1,3,5-triazin-2-yl)benzonitrile] are 58 nM, 54 nM and 14 nM.
On to `N#Cc1cc(-c2ncnc(Nc3ccc(N4CCN(C5COC5)CC4)cc3)n2)ccc1O[C@H]1CCN(C(=O)c2cncc(N)n2)C[C@H]1F` [Example 340, 2-(((3R,4S)-1-(6-aminopyrazine-2-carbonyl)-3-fluoropiperidin-4-yl)oxy)-5-(4-((4-(4-(oxetan-3-yl)piperazin-1-yl)phenyl)amino)-1,3,5-triazin-2-yl)benzonitrile], for which the results for the IC50 in assay [1], in assay [2] and in assay [3] were 9 nM, 122 nM and 4 nM, respectively.
The matching figures for `C[C@H](O)C(=O)N1CC[C@H](Oc2ccc(-c3ncnc(Nc4ccc(N5CC(C)(O)C5)cc4)n3)cc2C#N)[C@H](F)C1` [Example 342, 2-(((3R,4S)-3-fluoro-1-((S)-2-hydroxypropanoyl)piperidin-4-yl)oxy)-5-(4-((4-(3-hydroxy-3-methylazetidin-1-yl)phenyl)amino)-1,3,5-triazin-2-yl)benzonitrile]: 1 nM, 496 nM and 2 nM.
On the same counts, the results for `Cn1ncc2ccc(Nc3ncnc(-c4ccc(O[C@H]5CCN(C(=O)CO)C[C@H]5F)c(C#N)c4)n3)cc21` [Example 343, 2-(((3R,4S)-3-fluoro-1-(2-hydroxyacetyl)piperidin-4-yl)oxy)-5-(4-((1-methyl-1H-indazol-6-yl)amino)-1,3,5-triazin-2-yl)benzonitrile] are 2 nM, 258 nM and 4 nM.
The matching figures for `C[C@H](O)C(=O)N1CC[C@H](Oc2ccc(-c3ncnc(Nc4ccc5cnn(C)c5c4)n3)cc2C#N)[C@H](F)C1` [Example 344, 2-(((3R,4S)-3-fluoro-1-((S)-2-hydroxypropanoyl)piperidin-4-yl)oxy)-5-(4-((1-methyl-1H-indazol-6-yl)amino)-1,3,5-triazin-2-yl)benzonitrile]: 5 nM, 707 nM and 7 nM.
Take `Cc1nn(C)c2cc(Nc3ncnc(-c4ccc(O[C@H]5CCN(C(=O)CO)C[C@H]5F)c(C#N)c4)n3)ccc12` [Example 346, 5-(4-((1,3-dimethyl-1H-indazol-6-yl)amino)-1,3,5-triazin-2-yl)-2-(((3R,4S)-3-fluoro-1-(2-hydroxyacetyl)piperidin-4-yl)oxy)benzonitrile]: the IC50 in assay [1] is 1 nM; in assay [2] it was 511 nM; in assay [3], 3 nM.
For `Cc1nn(C)c2cc(Nc3ncnc(-c4ccc(O[C@H]5CCN(C(=O)[C@H](C)O)C[C@H]5F)c(C#N)c4)n3)ccc12` [Example 347, 5-(4-((1,3-dimethyl-1H-indazol-6-yl)amino)-1,3,5-triazin-2-yl)-2-(((3R,4S)-3-fluoro-1-((S)-2-hydroxypropanoyl)piperidin-4-yl)oxy)benzonitrile], the IC50 in assay [1] is 5 nM; in assay [2] it was not below 1000 nM; in assay [3] it was 4 nM.
Take `N#Cc1cc(-c2ncnc(Nc3ccc(N4CCN(C5COC5)CC4)cc3)n2)ccc1O[C@H]1CCN(C(=O)C(O)CO)C[C@H]1F` (stereo partly drawn) [Example 348, 2-(((3R,4S)-1-(2,3-dihydroxypropanoyl)-3-fluoropiperidin-4-yl)oxy)-5-(4-((4-(4-(oxetan-3-yl)piperazin-1-yl)phenyl)amino)-1,3,5-triazin-2-yl)benzonitrile]: the IC50 in assay [1] amounted to 3 nM; in assay [2] it was 162 nM; in assay [3] it was 4 nM.
The matching figures for `CC(C)n1cc(Nc2ncnc(-c3ccc(O[C@H]4CCN(C(=O)CO)C[C@H]4F)c(C#N)c3)n2)cn1` [Example 349, 2-(((3R,4S)-3-fluoro-1-(2-hydroxyacetyl)piperidin-4-yl)oxy)-5-(4-((1-isopropyl-1H-pyrazol-4-yl)amino)-1,3,5-triazin-2-yl)benzonitrile]: 2 nM, 98 nM and 2 nM.
The matching figures for `CC(C)n1cc(Nc2ncnc(-c3ccc(O[C@H]4CCN(C(=O)[C@H](C)O)C[C@H]4F)c(C#N)c3)n2)cn1` [Example 350, 2-(((3R,4S)-3-fluoro-1-((S)-2-hydroxypropanoyl)piperidin-4-yl)oxy)-5-(4-((1-isopropyl-1H-pyrazol-4-yl)amino)-1,3,5-triazin-2-yl)benzonitrile]: 5 nM, 231 nM and 3 nM.
With `CCn1cc(Nc2ncnc(-c3ccc(O[C@H]4CCN(C(=O)[C@H](C)O)C[C@H]4F)c(C#N)c3)n2)cn1` [Example 351, 5-(4-((1-ethyl-1H-pyrazol-4-yl)amino)-1,3,5-triazin-2-yl)-2-(((3R,4S)-3-fluoro-1-((S)-2-hydroxypropanoyl)piperidin-4-yl)oxy)benzonitrile], the IC50 turned out to be 9 nM in assay [1], 662 nM in assay [2] and 6 nM in assay [3].
The matching figures for `C[C@H](O)C(=O)N1CC[C@H](Oc2ccc(-c3ncnc(Nc4cnn(CC(F)F)c4)n3)cc2C#N)[C@H](F)C1` [Example 352, 5-(4-((1-(2,2-difluoroethyl)-1H-pyrazol-4-yl)amino)-1,3,5-triazin-2-yl)-2-(((3R,4S)-3-fluoro-1-((S)-2-hydroxypropanoyl)piperidin-4-yl)oxy)benzonitrile]: 4 nM, not below 1000 nM and 4 nM.
The matching figures for `C[C@H](O)C(=O)N1CC[C@H](Oc2ccc(-c3ncnc(Nc4cnn(C5COC5)c4)n3)cc2C#N)[C@H](F)C1` [Example 353, 2-(((3R,4S)-3-fluoro-1-((S)-2-hydroxypropanoyl)piperidin-4-yl)oxy)-5-(4-((1-(oxetan-3-yl)-1H-pyrazol-4-yl)amino)-1,3,5-triazin-2-yl)benzonitrile]: 10 nM, 944 nM and 7 nM.
Regarding `C[C@H](O)C(=O)N1CC[C@H](Oc2ccc(-c3ncnc(Nc4cnn(C5CCOCC5)c4)n3)cc2C#N)[C@H](F)C1` [Example 354, 2-(((3R,4S)-3-fluoro-1-((S)-2-hydroxypropanoyl)piperidin-4-yl)oxy)-5-(4-((1-(tetrahydro-2H-pyran-4-yl)-1H-pyrazol-4-yl)amino)-1,3,5-triazin-2-yl)benzonitrile], the figures for the IC50 in assay [1], in assay [2] and in assay [3] were 5 nM, 309 nM and 6 nM, respectively.
The matching figures for `N#Cc1cc(-c2ncnc(Nc3ccc(N4CCN(C5COC5)CC4)cc3)n2)ccc1O[C@H]1CCN(C(=O)c2cn[nH]c2)C[C@H]1F` [Example 356, 2-(((3R,4S)-3-fluoro-1-(1H-pyrazole-4-carbonyl)piperidin-4-yl)oxy)-5-(4-((4-(4-(oxetan-3-yl)piperazin-1-yl)phenyl)amino)-1,3,5-triazin-2-yl)benzonitrile]: 3 nM, 550 nM and 2 nM.
On to `C[C@H](O)C(=O)N1CC[C@H](Oc2ccc(-c3ncnc(Nc4ccc(N5CCC[C@@H](O)C5)cc4)n3)cc2C#N)[C@H](F)C1` [Example 357, 2-(((3R,4S)-3-fluoro-1-((S)-2-hydroxypropanoyl)piperidin-4-yl)oxy)-5-(4-((4-((R)-3-hydroxypiperidin-1-yl)phenyl)amino)-1,3,5-triazin-2-yl)benzonitrile], for which the IC50 in assay [1] is 2 nM; in assay [2] it was 511 nM; in assay [3] it was 4 nM.
On the same counts, the results for `C[C@H](O)C(=O)N1CC[C@H](Oc2ccc(-c3ncnc(Nc4cnc(N5CCN(C6COC6)CC5)c(F)c4)n3)cc2C#N)[C@H](F)C1` [Example 358, 2-(((3R,4S)-3-fluoro-1-((S)-2-hydroxypropanoyl)piperidin-4-yl)oxy)-5-(4-((5-fluoro-6-(4-(oxetan-3-yl)piperazin-1-yl)pyridin-3-yl)amino)-1,3,5-triazin-2-yl)benzonitrile] are 11 nM, not below 1000 nM and 6 nM.
For `C[C@H](O)C(=O)N1CCCC(Oc2ccc(-c3ncnc(Nc4ccc(N5CCN(C6COC6)CC5)cc4)n3)cc2C#N)CC1` (stereo partly drawn) [Example 359, 2-((1-((S)-2-hydroxypropanoyl)azepan-4-yl)oxy)-5-(4-((4-(4-(oxetan-3-yl)piperazin-1-yl)phenyl)amino)-1,3,5-triazin-2-yl)benzonitrile], the IC50 was determined as 37 nM in assay [1], 995 nM in assay [2] and 17 nM in assay [3].
On the same counts, the results for `CCn1cc(Nc2ncnc(-c3ccc(O[C@H]4CCN(C(=O)CO)C[C@H]4F)c(C#N)c3)n2)cn1` [Example 360, 5-(4-((1-ethyl-1H-pyrazol-4-yl)amino)-1,3,5-triazin-2-yl)-2-(((3R,4S)-3-fluoro-1-(2-hydroxyacetyl)piperidin-4-yl)oxy)benzonitrile] are 2 nM, 185 nM and 3 nM.

The values above are taken from US10040781B2, “Tank-binding kinase inhibitor compounds” (Gilead Sciences, Inc., priority 2014, dated 2018).
